Read-outs that look alike come from different tables or passages of the source.
Assay: Atogepant-topiramate interaction study, cohort 1: atogepant steady-state PK
Type: in vivo, human
Details: for AUC / Cmax / Tmax: both sexes, human, plasma; for Tmax: read-out: Tmax,ss (median)
Protocol: The duration of the study was 25 days (±2 days), which included day −1 through the follow-up visit and excluded the screening period. The screening period was up to 21 days before day 1 and the intervention period was a total of 19 days, at which point the end of dosing visit was conducted. […] Clinical laboratory tests were performed at the follow-up visit, which was conducted on day 24 (7 [±2] days after the last dose of study medication. […] The primary endpoints were area under the plasma concentration-time curve during dosing interval at steady state (AUC0-tau,ss) and maximum plasma drug concentration at steady state (Cmax,ss) of atogepant and topiramate when coadministered and when administered alone. Additional PK parameters included time of maximum plasma drug concentration at steady state (Tmax,ss), average plasma drug concentration at steady state (Cavg,ss), and minimum plasma drug concentration at steady state (Cmin,ss) of topiramate and atogepant when coadministered and when administered alone.

[1] = atogepant 60 mg QD + topiramate 100 mg BID, day 17
[2] = atogepant 60 mg QD alone, day 7

For `C[C@@H]1[C@H](c2c(F)ccc(F)c2F)C[C@H](NC(=O)c2cnc3c(c2)C[C@@]2(C3)C(=O)Nc3ncccc32)C(=O)N1CC(F)(F)F` [atogepant, (3′S)-N-[(3S,5S,6R)-6-methyl-2-oxo-1-(2,2,2-trifluoroethyl)-5-(2,3,6-trifluorophenyl)piperidin-3-yl]-2′-oxo-1′,2′,5,7-tetrahydrospiro[cyclopenta[b]pyridine-6,3′-pyrrolo[2,3-b]pyridine]-3-carboxamide], the “Cavg,ss” value [1] was 95.8 ng/mL, the “Cmin,ss” value [1] was 6.3 ng/mL and the “Cavg,ss” value [2] was 125.6 ng/mL. For the same compound, the “Cmin,ss” value [2] was 10.2 ng/mL, the AUC (60 mg, Atogepant Alone, read-out: AUC0-tau,ss Geometric LSM) was 2720 ng·h/mL and the Cmax (60 mg, Atogepant Alone, read-out: Cmax,ss Geometric LSM) was 535 ng/mL. For the same compound, the AUC (60 mg, atogepant 60 mg QD alone, day 7, read-out: AUC0-tau,ss) was 3020 ng·h/mL, the Cmax (60 mg, atogepant 60 mg QD alone, day 7, read-out: Cmax,ss) was 626 ng/mL and the AUC (Atogepant and Topiramate, read-out: AUC0-tau,ss Geometric LSM) was 2030 ng·h/mL. The Cmax (Atogepant and Topiramate, read-out: Cmax,ss Geometric LSM) was 406 ng/mL, the AUC (atogepant 60 mg QD + topiramate 100 mg BID, day 17, read-out: AUC0-tau,ss) was 2300 ng·h/mL and the Cmax (atogepant 60 mg QD + topiramate 100 mg BID, day 17, read-out: Cmax,ss) was 491 ng/mL. For the same compound, the Tmax [1] was 2 h, the Tmax [2] was 2 h and the “reduction of atogepant AUC0-tau,ss” value (coadministered with topiramate) was 25%. The “reduction of atogepant Cmax,ss” value (coadministered with topiramate) was 24%.

— patent US12350259B2, “Methods of treating migraine” (Allergan Pharmaceuticals International Limited, priority 2021, dated 2025)
